# “Also recorded” adds a separate entry of the source. Where a name gives a salt, the structure may show the parent alone.
# Tests used:
# [1] = Photostability under irradiation with 250 watt sun lamp; assay type: physicochemical; details: sun lamp, in M-1cm-1 (unit assumed)
# Protocol: In addition, experiments were conducted in order to determine the photostability of the product of Example I. A solution was prepared by mixing 0.1 g of the product with 50 ml of dichloromethane solvent. The solution was placed in a 100 ml round bottom flask and irradiated with light from a sun lamp (250 watts at a distance of approximately 8 inches from the flask). […] However, another solution was made by combining 0.1 g of product in 250 ml of CH3 OH and 10 ml of CH2 Cl2. Addition of the CH2 Cl2 was undertaken to obtain complete dissolution. The solution was placed in a […] and irradiated as described above. […] Thus, the use of different solvents will cause a variation in both the character and duration of fluorescence.
# In addition, a further test was conducted in order to determine the photostability of the product. Specifically, 2.0 mg of the product in a 100 ml round bottom flask was dissolved in 50 ml of H2 O. The solution was then irradiated by light from a 250 watt sun lamp placed approximately 8 inches from the flask. UV spectral data was recorded periodically as shown below in Table III.
# [2] = P-BF2 dyes dispersed in acrylic co-polymer (solid-state laser)
# From the text: Any laser dye of the present invention may be substituted for the dye in any of the examples of that incorporated patent. The matrix generally includes solid polymeric host laser rods prepared using bulk polymerization of acrylic acid ester comonomers.
# [3] = Laser characteristics of pyrromethene-BF2 complexes under flashlamp excitation (Table IV); details: DMA/MeOH
# [4] = tested on: metastatic breast cancer spread to the chest wall; experiment: Topical photodynamic treatment of metastatic breast cancer of the chest wall, case history; assay type: in vivo, patient
# From the text: The following case history also illustrates topical application of one of the compounds of the present invention in a person with a 12-year history of metastatic breast cancer spread to the chest wall. The patient had been treated with combinations of numerous chemotherapeutic agents and radiation therapy. Their cancer continued to progress and they received nine weekly treatments with a topical 0.3% solution of 1,3,5,7,8-pentamethylpyrromethene boron difluoride-2,6-disulfonate (PMPDS-BF2) in dimethylsulfoxide applied to the chest wall lesions followed by exposure to a General Electric sunlamp for ten minutes. The patient had initially a greater than 50% shrinkage of their tumor, which lasted over nine weeks.
# [5] = Solubility/fluorescence in various solvents (Tables I, II); assay type: physicochemical
# Protocol: In addition, tests were conducted on the product in order to determine its solubility/fluorescence in various solvents. One property of the compositions described herein involves a variable degree of solubility/fluorescence relative to the solvents with which they are combined. Data showing a variety of different solvents combined with the product of Example I is presented below in Table I:
# As in Example I, tests were conducted on the product in Example II in order to determine its fluorescence in various solvents. Data showing a variety of different solvents combined with the product of Example II is presented below in Table II: […]
# [6] = tested on: human ovarian tumor cells; experiment: Photodynamic growth inhibition of human ovarian cancer cells in vitro (soft agar); assay type: cell-based
# Protocol: 1,3,5,7,8-pentamethylpyrromethene-boron difluoride-2,6-disodium disulfonate salt (PMPDS-BF2) and bimane diphosphonate were prepared according to previously described methods.
# Human ovarian cells from fifteen individual patients were evaluated. All cancers were epithelial originating ovarian adenocarcinomas. Each cancer had been passed through at least one culture in RPMI-1640 (10% FBA) medium prior to use in the present study. In each case cells were harvested and washed in RPMI-1640 medium and resuspended in concentrations of 2.6×10^6 cells/ml at 5° C. The cells (2.6×10^6 cells/ml) were then incubated in a RPMI-1640 growth medium (containing 10% fetal bovine […], penicillin 100 U/ml and streptomycin 100 μg/ml) pH, 7.4 with graded doses of PMPDS-BF2 complex for 30 minutes at 37° C. in a 5% CO2 /air incubator with gentle shaking. The three concentrations of PMPDS-BF2 evaluated in this study were 0.004 μg, 0.04 μg, and 0.4 μg/ml of medium. The cell suspension was then washed with cold RPMI-1640 medium to remove extracellular PMPDS-BF2 complex, and then the cells were resuspended in fresh RPMI growth medium. Fifteen (15) ml portions of the cell suspensions (2.6×10^6 cells/ml) were irradiated in glass tubes at 37° C. in room air over a 10-20 minute period using a General Electric sun lamp. Controls were cells exposed to PMPDS-BF2 with no light exposure, cells with light exposure alone and cells with neither exposure to light nor chemicals.
# Under identical conditions as above, bimane diphosphonate was evaluated for cytotoxic activities in the presence and absence of light. After the above incubations with PMPDS-BF2 or bimanes±light as controls, melted Bacto-agar (Difco Laboratories, Inc., Detroit, Mich.) was added to the cell suspensions to a final concentration of 0.3% agar. The mixtures were plated in 35 mm plastic tissue culture dishes on a feeder layer containing an enriched McCoy's 5A medium and 0.5% agar with the addition of 2-mercaptoethanol (5 mM) and DEAE-dextran. The seeding density for the cells in this study was kept between 1-5×10^4 cells per dish and the plates incubated at 37° C. in a CO2 incubator. Incubation was continued for another 2-3 weeks and the plates examined under an inverted phase contrast microscope and cells counted. Since these cells grow as tight aggregates in soft-agar, it was impossible to determine the number of cells in each growth. Instead, an ocular micrometer was used to count colonies 30 μm or larger in size. Plating efficiency, defined as the number of colonies formed per 100 viable cells plated, was compared between groups.
# [7] = topical 0.3% solution in dimethylsulfoxide, sunlamp ten minutes
compound,measurement,setting,value
"CC1=C(S(=O)(=O)O)C(C)=[N+]2C1=C(C)c1c(C)c(S(=O)(=O)O)c(C)n1[B-]2(F)F [PMPDS-BF2, Disodium salt of 4,4-difluoro-1,3,5,7,8-pentamethyl-4-bora-3a,4a-diaza-s-indacene-2,6-disulfonic acid monohydrate]",ε492 (H2O),"[1]; 2.0 mg in 50 ml H2O, 0 hours","76,995.38"
same,ε492 (H2O),"[1]; H2O, 0.5 hours","76,755.22"
same,ε492 (H2O),"[1]; H2O, 1.0 hours","75,556.52"
same,ε492 (H2O),"[1]; H2O, 1.5 hours","76,755.52"
same,ε492 (H2O),"[1]; H2O, 2.5 hours","75,316.35"
same,ε492 (H2O),"[1]; H2O, 3.5 hours","73,757.26"
same,ε492 (H2O),"[1]; H2O, 6.0 hours","69,799.55"
same,ε492 (H2O),"[1]; H2O, 20.0 hours","52,049.62"
same,ε492 (H2O),"[1]; H2O, 21.5 hours","51,569.90"
same,ε492 (H2O),"[1]; H2O, 23.5 hours","46,173.05"
same,ε492 (H2O),"[1]; H2O, 25.5 hours","45,573.40"
same,ε492 (H2O),"[1]; H2O, 28.0 hours","41,016.06"
same,ε492 (H2O),"[1]; H2O, 30.5 hours","37,178.46"
same,ε492 (H2O),"[1]; H2O, 44.0 hours","20,388.19"
same,ε492 (H2O),"[1]; H2O, 50.0 hours","13,192.355"
same,ε492 (H2O),"[1]; H2O, 52.5 hours",599.653
same,solubility in the polymer matrix,[2],particularly soluble
same,Life,[3],very long
same,shrinkage of tumor,"[4]; topical 0.3% solution in dimethylsulfoxide, nine weekly treatments, sunlamp ten minutes",greater than 50%
same,duration of tumor shrinkage,[4]; [7],over nine
same,toxic reactions,[4]; [7],no toxic reactions
same,course after nine week shrinkage,"[4]; topical 0.3% solution, after nine weeks",the metastatic lesions again began to grow
same,Solubility,[5]; (CF3)2 CHOH,Insoluble
same,Solubility,[5]; CH2 Cl2,Insoluble
same,Solubility,[5]; CH3 CO2 C2 H5,Insoluble
same,Solubility,[5]; H2 O,Soluble
same,Solubility,[5]; O(CH2 CH2)2 O,Insoluble
same,inhibition in cell growth,[6]; 0.004 μg/ml plus light,40-70%
same,cell morphology,"[6]; 0.004 μg/ml plus light, within 48 hours",pyknotic changes with nuclear fragmentation
same,colonization / morphology of cells,"[6]; 0.04 μg/ml plus light, three days post exposure","unable to colonize, demonstrated pyknotic changes in the nucleus and cytoplasmic discoloration"
same,inhibition of cell growth,[6]; 0.4 μg/ml plus light,100%
same,cytotoxic response without light,"[6]; absence of light exposure, monohydrate",did not demonstrate significant cytotoxic responses; also recorded: did not produce cytotoxicities
